Where a SMILES comes first, the peptide text is derived from it. Bridges are numbered along the chain shown (N, C = ends). Where no end group is shown, it is not given here. [ ]: non-standard residue; d: D form. The star is where a group is joined. Myristoyl = CCCCCCCCCCCCCC(=O)*; S5 = C=CCCC[C@](C)(N)C(=O)O
Tests used:
[1] = system: non-cancerous (MCF10A) breast cell line; assay: Methylene blue viability assay, MCF10A; type: cell-based, human; settings: for viability of non-cancerous MCF10 breast cells: 72 hours, 10 μM peptide, FIGS. 6A-B
Excerpt: (§1) Cell lines—Human breast cancer cell lines SKBR3 [Peles E et al. EMBO J. (1993) 12(3):961-71] and MCF7 [Faigenbloom L et al., Mol Syst Biol. (2015) 11(12):845] and human glioblastoma U87 [Goldberg L et al. Cancer Res. (2006) 66(24):11709-17] cell line, as well as Rat-1 fibroblast cells and H-Ras-transformed Rat-1 cells (EJ cells) [Marom M et al. J Biol Chem. (1995) 270(38):22263-70] and human Panc-1 and MIA PaCa-2 pancreatic cell lines (Rak R et al. Oncoscience. 2014 1(1):39-48; Weisz B et al. Oncogene (1999) 18, 2579±2588) were all grown in Dulbecco's modified Eagle's medium (DMEM; Biological Industries, Beithaemek, Israel). Human colorectal cancer cell lines DLD-1 (ATTC Cat No. CCL-221), HCT-116 (ATTC Cat No. CCL-247) and LNCaP prostate cancer cells were grown in Roswell Park Memorial Institute 1640 (RPMI 1640) medium and McCoy's 5A media, respectively (Sigma-Aldrich). All media were supplemented with antibiotics and 10% heat-inactivated fetal bovine serum (FBS; Gibco). Human breast cell line MCF10A [Bott A et al. Oncotarget. (2017) 8(27):43897-43914] was grown in Dulbeco's Modified Eagle's Medium/Nutrient Mixture F-12 HAM medium (DMEM F-12 HAM; Sigma-Aldrich), supplemented with antibiotics, 5% inactivated horse serum (HS; Invitrogen), 2 mM L-glutamine (Biological Industries, Beithaemek, Israel), 0.1 μg/ml cholera toxin (Sigma-Aldrich), 0.5 μg/ml hydrocortisone (Sigma-Aldrich), 10 μg/ml insulin (Biological Industries, Beithaemek, Israel) and 2 ng/ml EGF (R&D Systems). Cells were incubated at 37° C. in 5% CO2 in air, and the medium was changed every 3-4 days. Cells were passaged in trypsin/disodium ethylenediaminetetraacetic acid (Biological Industries, Beithaemek, Israel) when confluency reached 70%. One day prior to treatment the cells were plated at ~50% confluency in a medium supplemented with 10% FBS or 5% HS, accordingly.
(§2) Methylene blue viability assay—Cells were plated in 96-wells plates at cell densities of 1.5×10^3 (EJ, DLD-1), 3×10^3 (Rat-1, HCT-116, U87), 5×10^3 (SKBR3, MCF7) and 6×10^3 (MCF10A) cells/well. On the following day, cells were treated as indicated, and grown for 72 hours. Cell number determination was performed as described previously. IC-50 values were calculated using a non-linear regression model (logarithmic inhibitor vs. normalized response-variable slope) with the GraphPad Prism 6 software.

[2] = system: MCF7 breast cancer cells; type: cell-based, human; settings: for MCF7 cell viability: 10 μM peptide, FIGS. 6A-B
Excerpt: as §1
as §2, with “On the following day, cells were treated as indicated, and grown for 72 hours.” left out

[3] = system: ErbB2; assay: Immunoblotting of cell lysates, ErbB2 phosphorylation; type: cell-based, human; settings: SKBR3, DLD-1 and HCT116; 50 μM, 24 hours; FIG. 3B
Method: (§3) Lysate preparation and immunoblotting—Cells were seeded at cell densities of 1.5×10^5 (DLD-1), 1.8×10^5 (HCT-116) and 2.5×10^5 (SKBR3) cells/well, treated as indicated and grown for 24 hours. Following, cells were lysed in solubilization buffer; the lysates were cleared by centrifugation and a boiling gel sample buffer was added. Proteins were resolved by SDS-polyacrylamide gel electrophoresis through 10% polyacrylamide gels, and were electrophoretically transferred to nitrocellulose membranes. Membranes were blocked in TBST buffer containing 6% milk, and blotted with primary antibodies. Following, a secondary antibody linked to horseradish peroxidase was added. Immunoreactive bands were detected with the enhanced chemiluminescence reagent Immobilon Crescendo Western HRP substrate (WBLUR0100; Merck Millipore).

[4] = system: DLD-1 colon cancer cells; type: cell-based, human
Excerpt: as §1, §2

[5] = system: HCT-116 colon cancer cells; type: cell-based, human
Excerpt: as §1, §2

[6] = target: T1, ErbB2-nucleolin complexes (Homo sapiens, UniProt P19338); assay: Proximity Ligation Assay (PLA); type: cell-based; settings: SKBR3 cells, 53 μM, 48 hours, FIG. 3A
T1 construct: endogenous in cells; host or cells: SKBR3
Method: Proximity Ligation Assay (PLA)—For proximity ligation assay (PLA) cells were plated in a 16-wells Nunc Lab-Tek glass Chamber Slide System (178599; Thermo Scientific) at a density of 3.5×10^3 cells/well. 2 hours post-seeding the cells were treated with 53 μM of either TAT peptide (SEQ ID NO: 2) or TAT-NLS peptide (SEQ ID NO: 3) and grown for 48 hours. Following fixation, cells were incubated with rabbit anti-ErbB2 and mouse anti-nucleolin antibodies. PLA was performed using the Duolink In-Situ PLA probes: anti-rabbit MINUS and anti-mouse PLUS, and the Duolink In-Situ Detection Reagents Red kit (DUO92005; DUO92001; DUO92008, respectively; Sigma-Aldrich), according to the manufacturer's instructions. Nuclei were stained using the Duolink In-Situ Mounting Medium with DAPI (DUO82040; Sigma-Aldrich). Slides were visualized 24 hours post-staining and images were obtained using an Olympus motorized inverted research microscope Model IX81 (60× magnification). Signal intensity was determined using ImageJ software.

[7] = system: EGFR (ErbB1); assay: Immunoblotting of cell lysates, EGFR phosphorylation; type: cell-based, human; settings: SKBR3, DLD-1 and HCT116; 50 μM, 24 hours; FIG. 3B
Method: as §3

[8] = system: SKBR3 breast cancer cells; type: cell-based, human
Excerpt: as §1
as §2, with “On the following day, cells were treated as indicated, and grown for 72 hours.” left out

[9] = system: DLD-1 colon cancer tumor xenografts; assay: Colon Tumor Growth in Nude Mice; type: in vivo; settings: DLD-1 xenografts, 25 μg/100 μl PBS intraperitoneal daily, FIGS. 14A-C
Method: Colon Tumor Growth in Nude Mice—Nude CD1-Nu mice (25-30 g) housed in barrier facilities on a 12-h light/dark cycle one week prior to the injection of tumor cells (day zero). On day zero, 5×10^6 DLD-1 cells were implanted subcutaneously just above the right femoral joint. Tumor size was measured every 3-4 days. When the tumors were apparently seen, the animals were divided randomly into three groups of mice [control vehicle treated, myr-NLS1 (SEQ ID NO: 5), myr-NLS4 (SEQ ID NO: 17)]. Treatment was performed by intraperitoneal injection of 25 μg in 100 μl PBS every day. Mice were weighed and tumors size was measured 3 times a week. At the end of the experiment, the mice were sacrificed, and the tumors were dissected and used for further analysis.

[10] = system: DLD-1 cells; assay: Colony formation assay, DLD-1; type: cell-based, human; settings: 20 μM, 72 hours, FIG. 12
Method: Colony formation assay—Cells were plated onto 12-well plate (6×10^4 cells/well) and treated with either PBS or myr-NLS at the IC50 concentration for 3 days. Cells were collected and replated in 10-cm plates (at 3 dilutions of 1:10, 1:20 and 1:40). After 7-14 days when visible and yet separated colonies were formed, the cells were fixed with 0.1% acetic acid in PBS, and stained with 0.4% crystal violet in 0.1% acetic acid. Total colonies area was calculated using the ImageJ program.
In addition, a colony formation assay was conducted to further examine the anti-tumor effect of the myr-NLS (SEQ ID NO: 5), myr-NLS2 (SEQ ID NO: 15) and myr-NLS4 (SEQ ID NO: 17) peptides. To this end, DLD-1 cells were treated or untreated for 72 hours with 20 μM of the myr-peptides. Cells were then seeded at the same dilutions in new plates until colonies were formed.

[11] = system: U87 glioma cells; type: cell-based, human; settings: 72 h
Excerpt: as §1, §2

[12] = system: Panc-1 pancreatic cancer cells; type: cell-based, human; settings: 72 h
Excerpt: as §1, §2

[13] = system: H-Ras-transformed Rat-1 cells (EJ cells); type: cell-based
Excerpt: Cell lines—Human breast cancer cell lines SKBR3 [Peles E et al. EMBO J. (1993) 12(3):961-71] and MCF7 [Faigenbloom L et al., Mol Syst Biol. (2015) 11(12):845] and human glioblastoma U87 [Goldberg L et al. Cancer Res. (2006) 66(24):11709-17] cell line, as well as Rat-1 fibroblast cells and H-Ras-transformed Rat-1 cells (EJ cells) [Marom M et al. J Biol Chem. (1995) 270(38):22263-70] and human Panc-1 and MIA PaCa-2 pancreatic cell lines (Rak R et al. Oncoscience. 2014 1(1):39-48; Weisz B et al. Oncogene (1999) 18, 2579±2588) were all grown in Dulbecco's modified Eagle's medium (DMEM; Biological Industries, Beithaemek, Israel). Human colorectal cancer cell lines DLD-1 (ATTC Cat No. CCL-221), HCT-116 (ATTC Cat No. CCL-247) and LNCaP prostate cancer cells were grown in Roswell Park Memorial Institute 1640 (RPMI 1640) medium and McCoy's 5A media, respectively (Sigma-Aldrich). All media were supplemented with antibiotics and 10% heat-inactivated fetal bovine serum (FBS; Gibco). Human breast cell line MCF10A [Bott A et al. Oncotarget. […]
as §2, with “On the following day, cells were treated as indicated, and grown for 72 hours. Cell number determination was performed as described previously.” left out

[14] = 30 μM peptide for 48 hours, FIG. 5A

T1 sequence (P19338 2-710 limits assumed, one chain of several): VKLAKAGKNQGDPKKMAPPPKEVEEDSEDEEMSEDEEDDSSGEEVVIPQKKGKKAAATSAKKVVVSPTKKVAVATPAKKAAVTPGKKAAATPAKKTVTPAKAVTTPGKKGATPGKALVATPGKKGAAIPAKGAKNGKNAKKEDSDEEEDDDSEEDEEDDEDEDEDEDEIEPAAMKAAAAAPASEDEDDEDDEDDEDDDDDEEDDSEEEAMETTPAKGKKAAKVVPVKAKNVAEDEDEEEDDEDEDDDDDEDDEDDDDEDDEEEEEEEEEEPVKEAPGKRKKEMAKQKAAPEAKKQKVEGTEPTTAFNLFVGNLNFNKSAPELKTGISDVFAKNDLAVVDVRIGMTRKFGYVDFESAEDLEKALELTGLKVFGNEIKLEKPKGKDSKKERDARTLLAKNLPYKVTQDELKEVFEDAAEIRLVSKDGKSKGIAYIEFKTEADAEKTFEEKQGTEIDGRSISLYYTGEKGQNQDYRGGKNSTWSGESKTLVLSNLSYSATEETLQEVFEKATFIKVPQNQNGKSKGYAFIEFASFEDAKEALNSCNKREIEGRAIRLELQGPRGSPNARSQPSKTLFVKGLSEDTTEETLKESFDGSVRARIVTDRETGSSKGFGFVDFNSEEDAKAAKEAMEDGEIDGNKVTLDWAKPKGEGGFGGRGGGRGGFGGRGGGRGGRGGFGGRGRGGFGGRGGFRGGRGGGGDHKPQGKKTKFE

“Myr-RRRHIVR(S5)RTL(S5)RLL (Myristoyl-RRRHIVR[S5]RTL[S5]RLL; staple 8-12; not fully specified; printed as Myr-RRRHIVR(S5)RTL(S5)RLL) [mN8-12]” was tested. Which “viability of non-cancerous MCF10 breast cells” value [1] did it give?
The value was “decreased viability”.

And the MCF7 cell viability ([2]; 72 hours)?
Its MCF7 cell viability is “decreased viability”.

GRKKRRQRRRPPQRRRHIVRKRTLRRLL [TAT-NLS] was tested. Which ErbB2 phosphorylation [3] did it give?
The ErbB2 phosphorylation was “inhibited”.

What about the “cell growth of DLD-1 colon cancer cells” value ([4]; 72 hours, FIGS. 2A-C) of the same compound?
Its value is “inhibited cell growth”.

What about the IC50 on cell viability ([4]; DLD-1, 72 hours, FIG. 2C) of the same compound?
Its IC50 on cell viability is 40.2 µM.

What about the “cell growth of HCT-116 colon cancer cells” value ([5]; 72 hours, FIGS. 2A-C) of the same compound?
Its value is “inhibited cell growth”.

What about the IC50 on cell viability ([5]; HCT116, 72 hours, FIG. 2C) of the same compound?
The IC50 on cell viability was 27.7 µM.

What about the “viability of the non-cancerous cells MCF10” value ([1]; FIGS. 2A-C) of the same compound?
The value was “not affecting viability”.

What about the “interaction between the ErbB2 receptor and nucleolin (PLA)” value [6] of the same compound?
Its value is “reduced the interaction”.

What about the “interaction between the ErbB2 receptor and nucleolin (PLA)” value ([6]; listed as TAL-NLS) of the same compound?
Its value is “disrupts the ErbB-nucleolin interaction”.

And the ErbB1 phosphorylation [7]?
The ErbB1 phosphorylation was “inhibited”.

What about the “cell growth of SKBR3 breast cancer cells” value ([8]; 72 hours, FIGS. 2A-C) of the same compound?
Its value is “inhibited cell growth”.

What about the IC50 on cell viability ([8]; SKBR, 72 hours, FIG. 2C) of the same compound?
Its IC50 on cell viability is 83.1 µM.

What about the “cell growth of MCF7 breast cancer cells” value ([2]; 72 hours, FIGS. 2A-C) of the same compound?
The value was “inhibited cell growth”.

What about the IC50 on cell viability ([2]; MCF7, 72 hours, FIG. 2C) of the same compound?
Its IC50 on cell viability is 49.5 µM.

Which “tumor growth (tumor size, tumor weight)” value [9] does the source give for “Myr-RRKSIKKKRALRRFL-OH (Myristoyl-RRKSIKKKRALRRFL-OH; SMILES CCCCCCCCCCCCCC(=O)N[C@@H](CCCNC(=N)N)C(=O)N[C@@H](CCCNC(=N)N)C(=O)N[C@@H](CCCCN)C(=O)N[C@@H](CO)C(=O)N[C@H](C(=O)N[C@@H](CCCCN)C(=O)N[C@@H](CCCCN)C(=O)N[C@@H](CCCCN)C(=O)N[C@@H](CCCNC(=N)N)C(=O)N[C@@H](C)C(=O)N[C@@H](CC(C)C)C(=O)N[C@@H](CCCNC(=N)N)C(=O)N[C@@H](CCCNC(=N)N)C(=O)N[C@@H](Cc1ccccc1)C(=O)N[C@@H](CC(C)C)C(=O)O)[C@@H](C)CC) [myr-NLS4]” here?
Its value is “significantly reduced tumor cell growth”.

And the “colony formation (total colonies area)” value [10]?
The value was “fewer and smaller colonies”.

`CCCCCCCCCCCCCC(=O)N[C@@H](CCCNC(=N)N)C(=O)N[C@@H](CCCNC(=N)N)C(=O)N[C@@H](CCCNC(=N)N)C(=O)N[C@@H](Cc1c[nH]cn1)C(=O)N[C@H](C(=O)N[C@@]1(C)CCCC=CCCC[C@@](C)(C(=O)N[C@@H](CC(C)C)C(=O)N[C@@H](CCCNC(=N)N)C(=O)N[C@@H](CCCNC(=N)N)C(=O)N[C@@H](CC(C)C)C(=O)N[C@@H](CC(C)C)C(=O)O)NC(=O)[C@H](CCCNC(=N)N)NC(=O)[C@H](CCCCN)NC(=O)[C@H](CCCNC(=N)N)NC1=O)[C@@H](C)CC` [mN6-10, Myr-RRRHI(S5)RKR(S5)LRRLL] (Myristoyl-RRRHI[S5]RKR[S5]LRRLL-OH; staple 6-10; C-terminus assumed) was tested. Which IC50 ([4]; 72 h) did it give?
Its IC50 is 9.4 µM.

What about the IC50 [11] of the same compound?
Its IC50 is 15.9 µM.

What about the IC50 [12] of the same compound?
Its IC50 is 7.6 µM.

What about the IC50 ([5]; 72 h) of the same compound?
Its IC50 is 13.3 µM.

What about the “viability of non-cancerous MCF10 breast cells” value [1] of the same compound?
Its value is “had no effect”.

And the IC50 [13]?
Its IC50 is 11.6 µM.

And the “viability of SKBR3 breast cancer cells” value [8, 14]?
Its value is “even more efficient than the myr-NLS peptide”.

And the IC50 ([8]; 72 h)?
The IC50 was 18.9 µM.

And the IC50 [2]?
Its IC50 is 9.7 µM.

What about the “viability of MCF7 breast cancer cells” value [2, 14] of the same compound?
Its value is “even more efficient than the myr-NLS peptide”.

What about the MCF7 cell viability ([2]; 72 hours) of the same compound?
The MCF7 cell viability was “decreased MCF7 cell viability”.

Reference: patent publication US20260200982A1, “HER RECEPTOR DERIVED PEPTIDES AND METHODS OF USE THEREOF” (Ramot at Tel-Aviv University Ltd., priority 2022, published 2026)
